Assay results from patent US20250136581A1, “SUBSTITUTED TRIAZOLE DERIVATIVE, PREPARATION METHOD THEREFOR, PHARMACEUTICAL COMPOSITION THEREOF, AND USE THEREOF” (SHANGHAI SIMR BIOTECHNOLOGY CO., LTD., priority 2021, published 2025).
pKi: −log10 of the molar value. Like-named read-outs stand apart in the source and are kept apart here.

Tests used:
[1] = target: human α5β3γ2 receptors (α5-GABAA receptor) (Homo sapiens (Human), UniProt P18507+P31644); experiment: 3H-flunitrazepam competition binding, human α5β3γ2 GABAA receptor; details: HEK293 cell membranes, 1 nM 3H-flunitrazepam
Outline: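 HEK293 membranes stably expressing each human receptor subtype ([…]) competed against 1 nM 3H-flunitrazepam in Tris buffer, 1 h at room temperature; flumazenil defined the low-signal control. Eight-point 4-fold test-compound dilutions; GF/C filtration and scintillation counting gave IC50 by curve fitting, converted to Ki.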

[2] = target: α5-GABAA receptor (α5, β3, γ2 subunits) (Homo sapiens (Human), UniProt P18507+P31644); experiment: Whole cell patch clamp, inverse agonist efficacy in HEK293 cells expressing α5-GABAA receptor; assay type: cell-based; details: HEK293, drug 100 nM, GABA 0.05 μM, −60 mV; read-out: Compound inverse agonist efficacy %
Outline: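 Stable HEK293 line co-expressing human α5, β3, γ2 subunits; whole-cell patch clamp at −60 mV, inward current evoked by 0.05 μM GABA, then compound at 100 nM in GABA solution applied. Effect derived from leak, pre- and post-drug GABA currents.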

Q: How did the pKi ([1]; read-out: α5-GABAAR Ki) turn out when Cn1nnc(-c2ccc(F)cc2)c1COc1ccc(N2CCNC(=O)C2)nn1 [Example 128, 4-(6-((4-(4-Fluorophenyl)-1-methyl-1H-1,2,3-triazol-5-yl)methoxy)pyridazin-3-yl)piperazin-2-one] was run?
A: Its pKi is 7.65.

Q: And the inhibition at 0.1 µM [2]?
A: Its inhibition at 0.1 µM is 53.9%.

Q: Which results are given for Cc1nnn(-c2ccc(OC(F)F)cc2)c1COc1ccc(N2CCN3CCNC(=O)[C@@H]3C2)nn1 [Example 130, (S)-8-(6-((1-(4-(Difluoromethoxy)phenyl)-4-methyl-1H-1,2,3-triazol-5-yl)methoxy)pyridazin-3-yl)octahydro-2H-pyrazino[1,2-a]pyrazin-1(6H)-one]?
A: pKi ([1]; read-out: α5-GABAAR Ki): 7.77; inhibition at 0.1 µM [2]: 57%

Q: Which results are given for O=C1CN(c2ccc(OCc3c(Cl)nnn3-c3ccc(C(F)F)cc3)nn2)CCN1 [Example 131, 4-(6-((4-Chloro-1-(4-(difluoromethyl)phenyl)-1H-1,2,3-triazol-5-yl)methoxy)pyridazin-3-yl)piperazin-2-one]?
A: pKi ([1]; read-out: α5-GABAAR Ki): 8.87; inhibition at 0.1 µM [2]: 47.6%

Q: How did the pKi ([1]; read-out: α5-GABAAR Ki) turn out when O=C1CN(c2ccc(OCc3cnnn3-c3ccc(C(F)F)cc3)nn2)CCN1 [Example 132, 4-(6-((1-(4-(Difluoromethyl)phenyl)-1H-1,2,3-triazol-5-yl)methoxy)pyridazin-3-yl)piperazin-2-one] was run?
A: Its pKi is 7.92.

Q: And the inhibition at 0.1 µM [2]?
A: The inhibition at 0.1 µM was 53.2%.

Q: How did the pKi ([1]; read-out: α5-GABAAR Ki) turn out when COc1cc(N2CCNC(=O)C2)nnc1OCc1c(C)nnn1-c1ccc(C(F)F)cc1 [Example 134, 4-(6-((1-(4-(Difluoromethyl)phenyl)-4-methyl-1H-1,2,3-triazol-5-yl)methoxy)-5-methoxypyridazin-3-yl)piperazin-2-one] was run?
A: Its pKi is 8.82.

Q: And the inhibition at 0.1 µM [2]?
A: Its inhibition at 0.1 µM is 45.7%.

Q: What does the source list for COCCN1CCN(c2ccc(OCc3c(C)nnn3-c3ccc(C(F)F)cc3)nn2)CC1=O [Example 139, 4-(6-((1-(4-(Difluoromethyl)phenyl)-4-methyl-1H-1,2,3-triazol-5-yl)methoxy)pyridazin-3-yl)-1-(2-methoxyethyl)piperazin-2-one]?
A: pKi ([1]; read-out: α5-GABAAR Ki): 8.86; inhibition at 0.1 µM [2]: 46.4%

Q: With COC(C)CN1CCN(c2ccc(OCc3c(C)nnn3-c3ccc(C(F)F)cc3)nn2)CC1=O (stereo not shown) [Example 141, 4-(6-((1-(4-(Difluoromethyl)phenyl)-4-methyl-1H-1,2,3-triazol-5-yl)methoxy)pyridazin-3-yl)-1-(2-methoxypropyl)piperazin-2-one] as the molecule, how does the pKi ([1]; read-out: α5-GABAAR Ki) read?
A: Its pKi is 8.37.

Q: And the inhibition at 0.1 µM [2]?
A: The inhibition at 0.1 µM was 47.2%.

Q: Cc1nnn(-c2ccc(C(F)F)cc2)c1COc1ccc(N2CCN(CCCC#N)C(=O)C2)nn1 [Example 143, 4-(4-(6-((1-(4-(Difluoromethyl)phenyl)-4-methyl-1H-1,2,3-triazol-5-yl)methoxy)pyridazin-3-yl)-2-oxopiperazin-1-yl)butanenitrile] was tested. Which pKi ([1]; read-out: α5-GABAAR Ki) did it give?
A: Its pKi is 8.72.

Q: And the inhibition at 0.1 µM [2]?
A: Its inhibition at 0.1 µM is 52.5%.

Q: How did the pKi ([1]; read-out: α5-GABAAR Ki) turn out when Cc1nnn(-c2ccc(C(F)F)cc2)c1COc1ccc(N2CCN(CCCc3ccc(C#N)cc3)C(=O)C2)nn1 [Example 145, 4-(3-(4-(6-((1-(4-(Difluoromethyl)phenyl)-4-methyl-1H-1,2,3-triazol-5-yl)methoxy)pyridazin-3-yl)-2-oxopiperazin-1-yl)propyl)benzonitrile] was run?
A: The pKi was 8.90.

Q: What about the inhibition at 0.1 µM [2] of the same molecule?
A: The inhibition at 0.1 µM was 69%.

Q: O=C(O)c1ccc(CCCN2CCN(c3ccc(OCc4c(Cl)nnn4-c4ccc(C(F)F)cc4)nn3)CC2=O)cc1 [Example 146, 4-(3-(4-(6-((4-Chloro-1-(4-(difluoromethyl)phenyl)-1H-1,2,3-triazol-5-yl)methoxy)pyridazin-3-yl)-2-oxopiperazin-1-yl)propyl)benzoic acid] was tested. Which pKi ([1]; read-out: α5-GABAAR Ki) did it give?
A: The pKi was 8.35.

Q: And the inhibition at 0.1 µM [2]?
A: Its inhibition at 0.1 µM is 56.5%.

Q: Cc1nnn(-c2ccc(C(F)F)cc2)c1COc1ccc(N2CCN3CCN(C4COC4)C(=O)[C@@H]3C2)nn1 [Example 147, (S)-8-(6-((1-(4-(Difluoromethyl)phenyl)-4-methyl-1H-1,2,3-triazol-5-yl)methoxy)pyridazin-3-yl)-2-(oxetan-3-yl)hexahydro-2H-pyrazino[1,2-a]pyrazin-1(6H)-one] was tested. Which pKi ([1]; read-out: α5-GABAAR Ki) did it give?
A: Its pKi is 8.18.

Q: And the inhibition at 0.1 µM [2]?
A: The inhibition at 0.1 µM was 54.5%.

Q: What does the source list for Cc1nnn(-c2ccc(C(F)F)cc2)c1COc1ccc(N2CC(C(=O)N3CCCC(O)C3)C2)nn1 (stereo not shown) [Example 154, (1-(6-((1-(4-(Difluoromethyl)phenyl)-4-methyl-1H-1,2,3-triazol-5-yl)methoxy)pyridazin-3-yl)azetidin-3-yl)(3-hydroxypiperidin-1-yl)methanone]?
A: pKi ([1]; read-out: α5-GABAAR Ki): 8.28; inhibition at 0.1 µM [2]: 46.6%

Q: With Cc1nnn(-c2ccc(C(F)F)cc2)c1COc1ccc(N2CC(C(=O)N3CC(C)OC(C)C3)C2)nn1 (stereo not shown) [Example 156, (1-(6-((1-(4-(Difluoromethyl)phenyl)-4-methyl-1H-1,2,3-triazol-5-yl)methoxy)pyridazin-3-yl)azetidin-3-yl)(2,6-dimethylmorpholino)methanone] as the molecule, how does the pKi ([1]; read-out: α5-GABAAR Ki) read?
A: The pKi was 8.38.

Q: And the inhibition at 0.1 µM [2]?
A: The inhibition at 0.1 µM was 44.3%.

Q: With Cc1nnn(-c2ccc(C(F)F)cc2)c1COc1ccc(N2CC(C(=O)N3CC4CC3CO4)C2)nn1 (stereo not shown) [Example 157, (2-Oxa-5-azabicyclo[2.2.1]heptan-5-yl)(1-(6-((1-(4-(difluoromethyl)phenyl)-4-methyl-1H-1,2,3-triazol-5-yl)methoxy)pyridazin-3-yl)azetidin-3-yl)methanone] as the molecule, how does the pKi ([1]; read-out: α5-GABAAR Ki) read?
A: Its pKi is 8.45.

Q: And the inhibition at 0.1 µM [2]?
A: The inhibition at 0.1 µM was 44.2%.

Q: What does the source list for CCNC(=O)C1CN(c2ccc(OCc3c(C)nnn3-c3ccc(C(F)F)cc3)nc2)C1 [Example 159, 1-(6-((1-(4-(Difluoromethyl)phenyl)-4-methyl-1H-1,2,3-triazol-5-yl)methoxy)pyridin-3-yl)-N-ethylazetidine-3-carboxamide]?
A: pKi ([1]; read-out: α5-GABAAR Ki): 7.70; inhibition at 0.1 µM [2]: 49.9%

Q: What does the source list for Cc1nnn(-c2ccc(C(F)F)cc2)c1COc1ccc(N2CC(C(=O)N3CCOCC3)C2)cn1 [Example 160, (1-(6-((1-(4-(Difluoromethyl)phenyl)-4-methyl-1H-1,2,3-triazol-5-yl)methoxy)pyridin-3-yl)azetidin-3-yl)(morpholino)methanone]?
A: pKi ([1]; read-out: α5-GABAAR Ki): 8.21; inhibition at 0.1 µM [2]: 42.7%

Q: Which results are given for Cc1nnn(-c2ccc(CF)cc2)c1COc1ccc(N2CCN3CCNC(=O)[C@@H]3C2)nn1 [Example 162, (S)-8-(6-((1-(4-(Fluoromethyl)phenyl)-4-methyl-1H-1,2,3-triazol-5-yl)methoxy)pyridazin-3-yl)hexahydro-2H-pyrazino[1,2-a]pyrazin-1(6H)-one]?
A: pKi ([1]; read-out: α5-GABAAR Ki): 8.59; inhibition at 0.1 µM [2]: 47.7%

Q: What does the source list for Cc1nnn(-c2ccc(Cl)cc2)c1COc1ccc(N2CCN3CCNC(=O)[C@@H]3C2)nn1 [Example 163, (S)-8-(6-((1-(4-Chlorophenyl)-4-methyl-1H-1,2,3-triazol-5-yl)methoxy)pyridazin-3-yl)hexahydro-2H-pyrazino[1,2-a]pyrazin-1(6H)-one]?
A: pKi ([1]; read-out: α5-GABAAR Ki): 7.58; inhibition at 0.1 µM [2]: 43.6%

Q: With Cc1nnn(-c2ccc(C(F)F)cc2F)c1COc1ccc(N2CCN3CCNC(=O)[C@@H]3C2)nn1 [Example 168, (S)-8-(6-((1-(4-(Difluoromethyl)-2-fluorophenyl)-4-methyl-1H-1,2,3-triazol-5-yl)methoxy)pyridazin-3-yl)hexahydro-2H-pyrazino[1,2-a]pyrazin-1(6H)-one] as the molecule, how does the pKi ([1]; read-out: α5-GABAAR Ki) read?
A: Its pKi is 8.55.

Q: What about the inhibition at 0.1 µM [2] of the same molecule?
A: The inhibition at 0.1 µM was 42.4%.

Q: With CC(=O)N1CCN(c2ccc(OCc3c(C)nnn3-c3ccc(C(F)F)cc3)nn2)CC1 [Example 171, 1-(4-(6-((1-(4-(Difluoromethyl)phenyl)-4-methyl-1H-1,2,3-triazol-5-yl)methoxy)pyridazin-3-yl)piperazin-1-yl)ethan-1-one] as the molecule, how does the pKi ([1]; read-out: α5-GABAAR Ki) read?
A: The pKi was 8.97.

Q: What about the inhibition at 0.1 µM [2] of the same molecule?
A: The inhibition at 0.1 µM was 42%.

Q: Which results are given for Cc1nnn(-c2ccc(C(F)F)cc2)c1COc1cnc(N2CCN3CCNC(=O)[C@@H]3C2)cn1 [Example 178, (S)-8-(5-((1-(4-(Difluoromethyl)phenyl)-4-methyl-1H-1,2,3-triazol-5-yl)methoxy)pyrazin-2-yl)hexahydro-2H-pyrazino[1,2-a]pyrazin-1(6H)-one]?
A: pKi ([1]; read-out: α5-GABAAR Ki): 7.76; inhibition at 0.1 µM [2]: 49.7%

Q: What does the source list for Cc1nnn(-c2ccc(C(F)F)cc2)c1COc1ccc(N2CC3COCCN3C2=O)nn1 (stereo not shown) [Example 180, 2-(6-((1-(4-(Difluoromethyl)phenyl)-4-methyl-1H-1,2,3-triazol-5-yl)methoxy)pyridazin-3-yl)hexahydro-3H-imidazo[5,1-c][1,4]oxazin-3-one]?
A: pKi ([1]; read-out: α5-GABAAR Ki): 8.92; inhibition at 0.1 µM [2]: 40.3%

Q: Which results are given for O=C1CN(c2ccc(OCc3c(Cl)nnn3-c3ccc(F)cc3)nn2)CCN1 [Example 189, 4-(6-((4-Chloro-1-(4-fluorophenyl)-1H-1,2,3-triazol-5-yl)methoxy)pyridazin-3-yl)piperazin-2-one]?
A: pKi ([1]; read-out: α5-GABAAR Ki): 8.03; inhibition at 0.1 µM [2]: 42.1%

Q: What does the source list for Cc1nnn(-c2ccc(C(F)F)cc2)c1COc1ccc(N2CCN3[C@@H]4CCC[C@@H]4NC(=O)[C@@H]3C2)nn1 [Example 197, (4aS,6aS,9aR)-3-(6-((1-(4-(Difluoromethyl)phenyl)-4-methyl-1H-1,2,3-triazol-5-yl)methoxy)pyridazin-3-yl)decahydrocyclopenta[e]pyrazino[1,2-a]pyrazin-5(1H)-one]?
A: pKi ([1]; α5-GABAAR Ki): 8.31; inhibition at 0.1 µM [2]: 52.4%

Q: What does the source list for Cc1nnn(-c2ccc(C(F)F)cc2)c1COc1ccc(N2CCN3[C@@H](C2)C(=O)N[C@@H]2CCC[C@@H]23)nn1 [Example 198, (4aS,6aR,9aS)-3-(6-((1-(4-(difluoromethyl)phenyl)-4-methyl-1H-1,2,3-triazol-5-yl)methoxy)pyridazin-3-yl)decahydrocyclopenta[e]pyrazino[1,2-a]pyrazin-5(1H)-one]?
A: pKi ([1]; α5-GABAAR Ki): 8.50; inhibition at 0.1 µM [2]: 48.2%

Q: With Cc1nnn(-c2ccc(C(F)F)cc2)c1COc1ccc(N2CCN3C4CCCCC4NC(=O)[C@@H]3C2)nn1 (stereo partly drawn) [Example 199, (4aS)-3-(6-((1-(4-(Difluoromethyl)phenyl)-4-methyl-1H-1,2,3-triazol-5-yl)methoxy)pyridazin-3-yl)decahydro-1H-pyrazino[1,2-a]quinoxalin-5(6H)-one] as the molecule, how does the pKi ([1]; α5-GABAAR Ki) read?
A: The pKi was 8.50.

Q: And the inhibition at 0.1 µM [2]?
A: The inhibition at 0.1 µM was 60.2%.
